# How the values were obtained:
# H1299 cell pAxl = target: T1, H1299 cell pAxl (Homo sapiens, UniProt P30530); experiment: Inhibitory activity on cell pAxl (H1299 cells, hGAS6 stimulation, Western Blot); assay type: cell-based; conditions: hGAS6 200 ng/mL, tested at 1.1, 3.3, 10 and 30 nM, read-out: Inhibitory Activity on Cell pAx1, IC50
# T1 construct: endogenous in cells; host or cells: H1299
# T1 sequence (P30530 26-894): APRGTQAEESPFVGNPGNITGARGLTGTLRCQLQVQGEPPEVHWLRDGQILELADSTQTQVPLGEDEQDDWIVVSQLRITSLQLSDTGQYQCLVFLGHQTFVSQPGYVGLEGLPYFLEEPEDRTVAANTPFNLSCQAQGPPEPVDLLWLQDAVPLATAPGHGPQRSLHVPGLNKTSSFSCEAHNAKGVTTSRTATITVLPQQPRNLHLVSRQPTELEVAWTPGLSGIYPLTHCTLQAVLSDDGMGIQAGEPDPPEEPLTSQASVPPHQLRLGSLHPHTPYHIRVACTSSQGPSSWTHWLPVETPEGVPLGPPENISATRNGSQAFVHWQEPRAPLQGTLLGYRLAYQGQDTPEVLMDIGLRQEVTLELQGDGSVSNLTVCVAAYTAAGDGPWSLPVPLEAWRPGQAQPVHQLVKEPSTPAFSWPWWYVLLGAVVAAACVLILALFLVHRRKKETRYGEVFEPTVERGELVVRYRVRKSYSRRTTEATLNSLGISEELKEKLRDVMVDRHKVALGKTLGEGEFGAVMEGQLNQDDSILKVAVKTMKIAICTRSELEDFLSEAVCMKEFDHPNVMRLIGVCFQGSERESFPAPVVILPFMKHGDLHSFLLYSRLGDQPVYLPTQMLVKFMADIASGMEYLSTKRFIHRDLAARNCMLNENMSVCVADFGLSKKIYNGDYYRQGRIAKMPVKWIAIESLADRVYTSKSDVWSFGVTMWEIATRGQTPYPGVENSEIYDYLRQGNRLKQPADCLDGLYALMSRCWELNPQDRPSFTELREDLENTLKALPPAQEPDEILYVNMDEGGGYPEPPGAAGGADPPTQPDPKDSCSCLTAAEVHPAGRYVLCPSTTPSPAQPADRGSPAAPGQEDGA
# Description: H1299 is a non-small cell lung cancer cell.
# Test samples: the compounds of the present invention, having structures shown above.
# Test instruments: protein electrophoresis apparatus (made by Bio Rad), membrane transfer apparatus (made by Bio Rad), exposure apparatus (made by Tanon), and CO2 cell incubator (made by Thermo).
# H1299 cells were inoculated into a 6-well plate (containing 10% FBS 1640 medium, 5×10^5 cells per well) and adherently cultivated at 37° C. and 5% CO2 for 18 h. The cells were starved overnight, and compounds with different concentrations were added. The compounds had final concentrations of 1.1 nM, 3.3 nM, 10 nM and 30 nM, with DMSO having a final concentration of 1‰. There was a medium containing 10‰ DMSO in the negative control well. The cells were incubated at 37° C. and 5% CO2 for 60 min, and then hGAS6 (R&D, final concentration: 200 ng/mL) was added to each well. The cells were further incubated for 60 min, and then the total protein of the cells was extracted for Western Blot experiment. IC50 values were calculated with GraphPad 5.0 software, and the inhibitory activities of the compounds on cell pAxl were detected.
# Tyro-3 (h) = target: T2, Tyro-3 (h) (Homo sapiens, UniProt Q06418); experiment: Enzymatic activity assay, Tyro-3 (h) kinase, [γ-33P]-ATP; assay type: biochemical; conditions: 10 μM [γ-33P]-ATP, 40 min, room temperature; read-out: Inhibitory Activity on Tyro-3 (h), IC50
# T2 construct: purchased
# T2 sequence (Q06418 41-890): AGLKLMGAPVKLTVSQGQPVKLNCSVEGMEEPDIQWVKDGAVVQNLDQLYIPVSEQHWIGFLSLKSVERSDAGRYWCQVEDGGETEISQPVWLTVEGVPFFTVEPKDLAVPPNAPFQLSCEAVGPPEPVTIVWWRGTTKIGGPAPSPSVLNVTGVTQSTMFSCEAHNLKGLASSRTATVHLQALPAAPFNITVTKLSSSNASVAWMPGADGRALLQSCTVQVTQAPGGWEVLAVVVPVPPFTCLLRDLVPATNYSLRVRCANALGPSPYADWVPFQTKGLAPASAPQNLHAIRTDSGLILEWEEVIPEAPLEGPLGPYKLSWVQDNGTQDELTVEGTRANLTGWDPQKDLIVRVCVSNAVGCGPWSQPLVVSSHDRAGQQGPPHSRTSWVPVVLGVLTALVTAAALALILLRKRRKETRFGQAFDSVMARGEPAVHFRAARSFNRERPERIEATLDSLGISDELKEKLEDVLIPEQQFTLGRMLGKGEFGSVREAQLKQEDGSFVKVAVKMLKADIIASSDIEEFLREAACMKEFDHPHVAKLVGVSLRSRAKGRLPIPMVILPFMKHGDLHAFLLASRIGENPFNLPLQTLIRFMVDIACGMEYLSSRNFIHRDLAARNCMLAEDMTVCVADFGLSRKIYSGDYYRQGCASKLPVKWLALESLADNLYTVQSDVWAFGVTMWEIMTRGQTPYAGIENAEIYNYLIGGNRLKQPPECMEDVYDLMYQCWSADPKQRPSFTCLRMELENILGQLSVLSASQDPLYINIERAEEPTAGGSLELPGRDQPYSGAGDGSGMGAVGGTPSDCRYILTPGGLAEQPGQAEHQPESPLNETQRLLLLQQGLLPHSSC
# Description: Test samples: the compounds of the present invention, having structures and preparation methods shown above.
# (1) Preparation of Compound Stock Solutions
# Compounds were each dissolved in 100% DMSO to prepare stock solutions with a maximum concentration of 500 μM.
# (2) Preparation of Compound Working Solutions
# The compound stock solutions were diluted to final concentrations of 500 μM, 150 μM, 50 μM, 15 μM, 5 μM, 1.5 μM, 0.5 μM, 0.15 μM and 0.05 μM to prepare compound working solutions (50×).
# (3) Preparation of different enzymatic reaction solutions
# Tyro3 (h) enzyme was dissolved in a mixture of 8 mM MOPS (pH 7.0), 0.2 mM EDTA, 1 mM MnCl2 and 250 μM KVEKIGEGTYGVVYK to prepare an enzyme solution with a final concentration of 38 nM. An Mg/ATP mixture of 10 mM magnesium acetate and 10 μM [γ-^33P]-ATP was used to activate the enzymatic reaction.
# The compound working solutions were added to a 384-well plate, with final concentrations of 10000 nM, 3000 nM, 1000 nM, 300 nM, 100 nM, 30 nM, 10 nM, 3 nM and 1 nM, respectively, and then different enzymatic reaction solutions prepared according to the above conditions were added. The reaction solutions were incubated at room temperature for 40 min, and then 0.5% phosphoric acid solutions were added to terminate the reaction. 10 μL of the reaction solution was added dropwise to P30 filter paper which was washed 4 times with a 0.425% phosphoric acid solution and once with methanol and then placed in a scintillation counter for detection. Gray analysis was performed on the results with Image J software, and IC50 values were calculated with GraphPad 5.0 software.
SMILES,IC50 (H1299 cell pAxl),IC50 (Tyro-3 (h))
"CC(C)n1cc(-c2ccc(F)cc2)c(=O)c(C(=O)Nc2ccc(Oc3ccnc(N)c3Cl)cn2)n1 [Compound 11, N-(5-((2-amino-3-chloropyridin-4-yl)oxy)pyridin-2-yl)-5-(4-fluorophenyl)-1-isopropyl-4-oxo-1,4-dihydropyridazine-3-carboxamide]",< 1.1 nM,54 nM
"CC(C)n1cc(-c2ccc(F)cc2)c(=O)c(C(=O)Nc2ccc(Oc3ccnc(N)c3Cl)nc2)n1 [Compound 13, N-(6-((2-amino-3-chloropyridin-4-yl)oxy)pyridin-3-yl)-5-(4-fluorophenyl)-1-isopropyl-4-oxo-1,4-dihydropyridazine-3-carboxamide]",1.1 to 3.3 nM,39 nM
"Nc1nccc(Oc2ccc(NC(=O)c3nn(C4CC4)cc(-c4ccc(F)cc4)c3=O)cn2)c1Cl [Compound 19, N-(6-((2-amino-3-chloropyridin-4-yl)oxy)pyridin-3-yl)-1-cyclopropyl-5-(4-fluorophenyl)-4-oxo-1,4-dihydropyridazine-3-carboxamide]",3.3 to 10 nM,73 nM
"Cn1cc(-c2ccc(F)cc2)c(=O)c(C(=O)Nc2ccc(Oc3ccnc(N)c3Cl)cn2)n1 [Compound 33, N-(5-((2-amino-3-chloropyridin-4-yl)oxy)pyridin-2-yl)-5-(4-fluorophenyl)-1-methyl-4-oxo-1,4-dihydropyridazine-3-carboxamide]",3.3 to 10 nM,23 nM
"C=CCn1cc(-c2ccc(F)cc2)c(=O)c(C(=O)Nc2ccc(Oc3ccnc(N)c3Cl)cn2)n1 [Compound 35, 1-allyl-N-(5-((2-amino-3-chloropyridin-4-yl)oxy)pyridin-2-yl)-5-(4-fluorophenyl)-4-oxo-1,4-dihydropyridazine-3-carboxamide]",< 1.1 nM,24 nM
"C=CCn1cc(-c2ccc(F)cc2)c(=O)c(C(=O)Nc2ccc(Oc3ccnc(N)c3Cl)nc2)n1 [Compound 39, 1-allyl-N-(6-((2-amino-3-chloropyridin-4-yl)oxy)pyridin-3-yl)-5-(4-fluorophenyl)-4-oxo-1,4-dihydropyridazine-3-carboxamide]",1.1 to 3.3 nM,28 nM

# More lines, now with the values ahead:
IC50 (H1299 cell pAxl),IC50 (Tyro-3 (h)),SMILES
3.3 nM,23 nM,"CC(C)n1cc(-c2ccc(F)cc2)c(=O)c(C(=O)Nc2ncc(Oc3ccnc(N)c3Cl)cn2)n1 [Compound 12, N-(5-((2-amino-3-chloropyridin-4-yl)oxy)pyrimidin-2-yl)-5-(4-fluorophenyl)-1-isopropyl-4-oxo-1,4-dihydropyridazine-3-carboxamide]"
< 1.1 nM,31 nM,"Nc1nccc(Oc2ccc(NC(=O)c3nn(C4CC4)cc(-c4ccc(F)cc4)c3=O)nc2)c1Cl [Compound 17, N-(5-((2-amino-3-chloropyridin-4-yl)oxy)pyridin-2-yl)-1-cyclopropyl-5-(4-fluorophenyl)-4-oxo-1,4-dihydropyridazine-3-carboxamide]"
3.3 nM,49 nM,"Nc1nccc(Oc2cnc(NC(=O)c3nn(C4CC4)cc(-c4ccc(F)cc4)c3=O)nc2)c1Cl [Compound 18, N-(5-((2-amino-3-chloropyridin-4-yl)oxy)pyrimidin-2-yl)-5-(4-fluorophenyl)-1-cyclopropyl-4-oxo-1,4-dihydropyridazine-3-carboxamide]"
1.1 nM,22 nM,C=CCn1cc(-c2ccc(F)cc2)c(=O)c(C(=O)Nc2ncc(Oc3ccnc(N)c3Cl)cn2)n1 [Compound 37]

# Reference: patent publication US20220298146A1, “HETEROCYCLIC DERIVATIVE AND USE THEREOF” (Transthera Sciences (Nanjing), Inc., priority 2019, published 2022)
